Data from patent US20210127673A1, “HERBICIDES” (SYNGENTA PARTICIPATIONS AG, priority 2016, published 2021).

Tests used:
Type in all cases: in vivo
Details in all cases: 1000 g/ha, evaluated after 13 days
[1] = system: Lolium perenne (LOLPE); assay: Post-emergence herbicidal activity, Lolium perenne; set-up: key: 5=total damage to plant; 0=no damage to plant
Method: (§1) Seeds of a variety of test species were sown in standard soil in pots: Triticum aestivium (TRZAW), Avena fatua (AVEFA), Alopecurus myosuroides (ALOMY), Echinochloa crus-galli (ECHCG), Lolium perenne (LOLPE), Zea Mays (ZEAMX), Abutilon theophrasti (ABUTH), Amaranthus retroflexus (AMARE) and Setaria faberi (SETFA). After 8 days cultivation (post-emergence) under controlled conditions in a glasshouse (at 24/16° C., day/night; 14 hours light; 65% humidity), the plants were sprayed with an aqueous spray solution derived from the formulation of the technical active ingredient in acetone/water (50:50) solution containing 0.5% Tween 20 (polyoxyethelyene sorbitan monolaurate, CAS RN 9005-64-5). The test plants were then grown in a glasshouse under controlled conditions (at 24/16° C., day/night; 14 hours light; 65% humidity) and watered twice daily. After 13 days, the test was evaluated (5=total damage to plant; 0=no damage to plant).

[2] = system: Triticum aestivium (TRZAW); assay: Post-emergence herbicidal activity, Triticum aestivium; set-up: key: 5=total damage to plant; 0=no damage to plant
Method: as §1

[3] = system: Echinochloa crus-galli (ECHCG); assay: Pre-emergence herbicidal activity, Echinochloa crus-galli; set-up: key: 5=total damage to plant; 0=no damage to plant
Method: (§2) Seeds of a variety of test species were sown in standard soil in pots: Triticum aestivium (TRZAW), Avena fatua (AVEFA), Alopecurus myosuroides (ALOMY), Echinochloa crus-galli (ECHCG), Lolium perenne (LOLPE), Zea Mays (ZEAMX), Abutilon theophrasti (ABUTH), Amaranthus retroflexus (AMARE) and Setaria faberi (SETFA). After cultivation for one day (pre-emergence) under controlled conditions in a glasshouse (at 24/16° C., day/night; 14 hours light; 65% humidity), the plants were sprayed with an aqueous spray solution derived from the formulation of the technical active ingredient in acetone/water (50:50) solution containing 0.5% Tween 20 (polyoxyethelyene sorbitan monolaurate, CAS RN 9005-64-5). The test plants were then grown in a glasshouse under controlled conditions (at 24/16°, day/night; 14 hours light; 65% humidity) and watered twice daily. After 13 days, the test was evaluated (5=total damage to plant; 0=no damage to plant).

[4] = system: Echinochloa crus-galli (ECHCG); assay: Post-emergence herbicidal activity, Echinochloa crus-galli; set-up: key: 5=total damage to plant; 0=no damage to plant
Method: as §1

[5] = system: Alopecurus myosuroides (ALOMY); assay: Pre-emergence herbicidal activity, Alopecurus myosuroides; set-up: key: 5=total damage to plant; 0=no damage to plant
Method: as §2

[6] = system: Setaria faberi (SETFA); assay: Post-emergence herbicidal activity, Setaria faberi; set-up: key: 5=total damage to plant; 0=no damage to plant
Method: as §1

[7] = system: Setaria faberi (SETFA); assay: Pre-emergence herbicidal activity, Setaria faberi; set-up: key: 5=total damage to plant; 0=no damage to plant
Method: as §2

[8] = system: Avena fatua (AVEFA); assay: Pre-emergence herbicidal activity, Avena fatua; set-up: key: 5=total damage to plant; 0=no damage to plant
Method: as §2

[9] = system: Triticum aestivium (TRZAW); assay: Pre-emergence herbicidal activity, Triticum aestivium; set-up: key: 5=total damage to plant; 0=no damage to plant
Method: as §2

[10] = system: Lolium perenne (LOLPE); assay: Pre-emergence herbicidal activity, Lolium perenne; set-up: key: 5=total damage to plant; 0=no damage to plant
Method: as §2

[11] = system: Avena fatua (AVEFA); assay: Post-emergence herbicidal activity, Avena fatua
Method: as §1

[12] = system: Alopecurus myosuroides (ALOMY); assay: Post-emergence herbicidal activity, Alopecurus myosuroides; set-up: key: 5=total damage to plant; 0=no damage to plant
Method: as §1

Row | SMILES | Control of LOLPE after post-emergence application (score 0-5) [1] | Control of TRAZW after post-emergence application (score 0-5) [2] | Control of ECHCG after pre-emergence application (score 0-5) [3] | Control of ECHCG after post-emergence application (score 0-5) [4] | Control of ALOMY after pre-emergence application (score 0-5) [5] | Control of SETFA after post-emergence application (score 0-5) [6] | Control of SETFA after pre-emergence application (score 0-5) [7] | Control of AVEFA after pre-emergence application (score 0-5) [8] | Control of TRAZW after pre-emergence application (score 0-5) [9] | Control of LOLPE after pre-emergence application (score 0-5) [10] | Control of AVEFA after post-emergence application (score 0-5) [11] | Control of ALOMY after post-emergence application (score 0-5) [12]
1 | CN(C(=O)OC(C)(C)C)c1ccc(-c2cc(F)c[n+]([O-])c2)nc1C(F)(F)F [Compound B1, tert-butyl N-[6-(5-fluoro-1-oxido-pyridin-1-ium-3-yl)-2-(trifluoromethyl)-3-pyridyl]-N-methyl-carbamate] | 2 | 0 | 2 | 4 | 0 | 5 | 4 | 2 | 0 | 1 | 4 | 1
2 | CC(C)(C)OC(=O)N(Cc1ccc(F)cc1F)c1ccc(-c2cncc(F)c2)nc1C(F)(F)F [Compound B3] | 0 | 0 | 0 | 2 | 0 | 3 | 0 | 0 | 0 | 0 | 2 | 0
3 | CN(C(=O)OC(C)(C)C)c1ccc(-c2cncc(C#N)c2)nc1C(F)(F)F [Compound B4] | 1 | 2 | 1 | 4 | 0 | 5 | 4 | 0 | 1 | 0 | 2 | 1
4 | CC(C)(C)OC(=O)Nc1ccc(-c2cncc(OC(F)(F)F)c2)nc1C(F)(F)F [Compound B36] | 1 | 0 | 3 | 3 | 0 |  | 5 | 2 | 0 | 0 | 3 | 0
5 | CC(C)NC(=O)Nc1ccc(-c2cncc(F)c2)nc1C(F)(F)F [Compound B37, 1-[6-(5-fluoro-3-pyridyl)-2-(trifluoromethyl)-3-pyridyl]-3-isopropyl-urea] | 2 | 0 | 4 | 5 | 0 |  | 5 | 2 | 0 | 1 | 3 | 0
6 | CN(C)C(=O)Nc1ccc(-c2cncc(F)c2)nc1C(F)(F)F [Compound B52] | 3 | 0 | 3 | 4 | 0 | 5 |  | 2 | 0 | 1 | 3 | 0
7 | O=C(Nc1ccc(-c2cncc(F)c2)nc1C(F)(F)F)OC1CCS(=O)(=O)C1 (stereo not shown) [Compound B66] |  | 1 | 3 | 4 | 0 | 5 | 5 | 2 | 0 | 1 |  | 0
8 | CN(C)C(=O)N(C)c1ccc(-c2cncc(F)c2)nc1C(F)(F)F [Compound B74] |  | 0 | 4 | 4 | 1 | 5 | 5 | 2 | 1 | 1 |  | 0
9 | COC(=O)c1nc(-c2cncc(F)c2)ccc1NC(=O)OC(C)(C)C [Compound B77] | 1 | 0 | 1 | 1 | 0 | 2 |  | 0 | 0 | 0 | 1 | 0
